Assay results reported in patent publication US8932558B2, “Multi-subunit biological complexes for treatment of plaque-associated diseases” (Plaxgen Inc, priority 2007, dated 2015).

Tests used:
Assay type in all cases: biochemical
[1] = tested on: thrombus generated from the in vitro assembled plaques complexes; experiment: Thrombolytic assay with PLG cascade proteins; settings: thrombus from cholesterol, lipids, CP and CO complexes
Procedure: To examine this, both PLG and PLG activators are used to target these clots. Thrombolytic assays are carried out in 100 μl reaction containing thrombus, generated from 100 μl of aggregates or plaque complexes, 1 μg of PLG and 20 ng of u-PA or t-PA in PBS buffer. The reactions are incubated at 37° C. for 1 hr and after every 15 min the tubes are gently tapped to mix the contents. After 1 hr incubation, 1 ml of PBS is added to all the tubes and the samples are visually examined for dissolution of the thrombus.
The thrombus generated from the cholesterol, lipids, CP, and CO complexes are incubated separately with PLG, u-PA and t-PA to examine whether these proteins individually could dissolve the clots.
This could be due to the inhibition of u-PA by the PAI-1 thereby preventing the activation of the PLG. In the next experiment, the aggregates of CP-Cholesterol, CP-Lipids, CP-Cholesterol-Lipids, Cholesterol-Lipids, CO-Cholesterol and CO-Lipids are individually used in CPA for five cycles to assemble complexes followed by their thrombus generation.
The example depicted in FIG. 18 illustrates the dissolution of thrombi by PLG and u-PA. […] Both the clots and the dissolved complexes are further examined under microscope to confirm the visual examination (FIGS. 18a, b, c and d). The thrombus formed in the urine is also dissolved by the action of PLG and u-PA.

[2] = tested on: iron loaded abeta42 aggregates mixed with CE proteins; experiment: Proteolysis of amyloid plaque complexes assembled on iron loaded abeta42 aggregates; settings: 20 ng
Procedure: This example illustrates the use of the invention to evaluate the proteolytic degradation of the amyloid complexes. For example, iron loaded abeta42 aggregates are mixed with CE proteins, and the resulting template complexes are treated with five different serine proteases. More specifically, nine independent reactions are carried out with each containing 5.0 μg of the iron-loaded aggregates of abeta42 and 6.0 μg of the CE proteins. After incubation and washing, the complexes are suspended in 50 μl of PBS. The nine complexes are sub-divided into two groups, with six individual complexes comprising Group I and three complexes comprising Group II. In order to interrogate the role of the plasminogen (PLG) activation system, which is implicated in the catabolism of amyloid peptides as well as the pathobiology of amyloid diseases (Melchor J P et al, 2003; Van Nostrand W E et al, 1999; Kranenburg O, 2005), the Group II complexes are subjected to another cycle of binding with both PLG (0.5 μg) and BSA (0.5 μg) proteins. After binding and washing, the PLG and BSA bound plaques complexes are suspended in 50 μl of PBS.
For proteolysis analysis, five of the six Group I template complexes are incubated with 20 ng of each protease (plasnin, chymotrypsin, trypsin, proteinase K and urokinase). The remaining complex is used as a control without protease treatment. Among three complexes of the Group II containing PLG attached to them, one is treated with u-PA (20 ng), a second is treated with t-PA (20 ng) and the third complex is used as a control without protease treatment. All these plaque complexes are incubated at 37° C. for 1 hr and after every 15 min, the tubes are gently tapped in order to encourage mixing. After washing, both the proteases-treated and control plaque complexes are suspended in 20 μl PBS. The complexes are boiled for 10 min with sample solubilizing buffer and loaded in to 4-20% gradient SDS-PAGE. Further, the gels are processed for silver staining and the results are documented for further analysis.

[3] = target: T1, iron-loaded abeta40 templates plaque complex (Homo sapiens, UniProt P00747); experiment: Proteolysis of plaque complexes assembled on iron-loaded abeta40 templates
T1 construct: Lys-Plasminogen (PLG); purchased Enzyme Research Laboratories (IN, USA)
Procedure: In order to verify the preceding results, such experiments are repeated using iron-loaded abeta40 templates for plaque complex formation. Proteins binding to the abeta40 templates appear to be cleared when they are treated with the same proteases.

[4] = target: T2, pre-assembled amyloid plaque like complexes (iron-loaded abeta42 templates) (Homo sapiens, UniProt P00747); experiment: Dissolution of pre-assembled amyloid plaque like complexes; settings: 20 ng, 37° C., 1 hr
T2 construct: Lys-Plasminogen (PLG); purchased Enzyme Research Laboratories (IN, USA)
Procedure: In order to identify lead compounds able to dissolve the pre-assembled amyloid plaque like complexes, the preceding experiments are repeated to assemble complexes in three cycles using the iron-loaded abeta42 templates. Then, 50 μl of the resulting complexes is incubated with test compound/s (50 ng to 1 μg) for 1 hr at 37° C. followed by washing and analysis of the complexes for their dissolution. For example, 50 μl of the pre-assembled complexes is mixed with u-PA or t-PA (20 ng) at 37° C. for 1 hr followed by washing and protein estimation or gel analysis of the resultant complexes. […] This approach is also useful to optimize u-PA (PGN54) molecule for use as a therapeutic lead to treat patients with advanced amyloid diseases such as Alzheimer. Reducing the amyloid plaque burden or plaque build-up in the cerebral arteries would greatly improve or reverse the pathological symptoms associated with the amyloid diseases. In addition, to test the hypothesis of amyloid plaque burden reduction as an effective strategy, optimized u-PA or other plasminogen activators are used in the animal models of Alzheimer's disease.

T1 sequence (P00747 97-810, one chain of several): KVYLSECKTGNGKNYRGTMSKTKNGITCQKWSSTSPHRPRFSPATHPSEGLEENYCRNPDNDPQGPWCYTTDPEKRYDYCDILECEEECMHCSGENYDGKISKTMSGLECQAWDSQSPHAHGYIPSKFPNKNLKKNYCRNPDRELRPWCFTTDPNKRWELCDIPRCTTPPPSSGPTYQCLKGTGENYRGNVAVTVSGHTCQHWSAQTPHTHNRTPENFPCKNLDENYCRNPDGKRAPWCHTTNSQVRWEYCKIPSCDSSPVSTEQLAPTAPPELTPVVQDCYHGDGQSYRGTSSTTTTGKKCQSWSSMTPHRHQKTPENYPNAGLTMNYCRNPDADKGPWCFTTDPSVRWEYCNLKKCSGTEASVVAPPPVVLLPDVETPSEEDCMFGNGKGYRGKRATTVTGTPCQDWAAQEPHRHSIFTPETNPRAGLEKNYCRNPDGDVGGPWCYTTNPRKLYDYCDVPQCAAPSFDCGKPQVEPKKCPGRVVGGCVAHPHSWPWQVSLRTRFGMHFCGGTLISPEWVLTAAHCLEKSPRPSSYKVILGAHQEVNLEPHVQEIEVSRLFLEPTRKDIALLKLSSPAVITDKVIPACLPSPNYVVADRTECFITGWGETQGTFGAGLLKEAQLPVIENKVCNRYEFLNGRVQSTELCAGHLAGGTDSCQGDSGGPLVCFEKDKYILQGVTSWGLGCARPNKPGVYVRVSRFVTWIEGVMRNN
T2 sequence (P00747 97-810, one chain of several): as above

For t-PA: tissue-type plasminogen activator, the “Dissolution of thrombus, protein incubated separately” value [1] was “did not show any dissolution”, the “Activation of PLG on PLG/BSA-attached complexes” value [2] was “the inactive PLG is converted into active plasmin” and the “Activation of PLG-bound complex” value [3] was “activate the PLG-bound complex”. For the same substance, the “Protein concentration of pre-assembled complexes after incubation” value [4] was “show reduction in the protein concentration”.
